Measurements published in patent US20240083857A1, “2-Methyl-Quinazolines” (Bayer Pharma Aktiengesellschaft, priority 2017, published 2024).
Where two headings read alike, the source gives them in different places.

Key:
[1] = target: K-Ras^G12C : hSOS1 interaction (Homo sapiens, UniProt Q07889); assay: Biochemical assay 1: K-Ras^G12C interaction assay with hSOS1 (HTRF); format: binding; conditions: read-out: Assay 1 (KRAS-SOS Interaction) activity expressed as IC50
[2] = target: Epidermal Growth Factor Receptor (EGFR) (Homo sapiens (Human), UniProt P00533); assay: EGFR kinase assay (TR-FRET); format: biochemical; conditions: read-out: EGFR kinase inhibition IC50
Sequence of Epidermal Growth Factor Receptor (EGFR) (P00533 25-1210): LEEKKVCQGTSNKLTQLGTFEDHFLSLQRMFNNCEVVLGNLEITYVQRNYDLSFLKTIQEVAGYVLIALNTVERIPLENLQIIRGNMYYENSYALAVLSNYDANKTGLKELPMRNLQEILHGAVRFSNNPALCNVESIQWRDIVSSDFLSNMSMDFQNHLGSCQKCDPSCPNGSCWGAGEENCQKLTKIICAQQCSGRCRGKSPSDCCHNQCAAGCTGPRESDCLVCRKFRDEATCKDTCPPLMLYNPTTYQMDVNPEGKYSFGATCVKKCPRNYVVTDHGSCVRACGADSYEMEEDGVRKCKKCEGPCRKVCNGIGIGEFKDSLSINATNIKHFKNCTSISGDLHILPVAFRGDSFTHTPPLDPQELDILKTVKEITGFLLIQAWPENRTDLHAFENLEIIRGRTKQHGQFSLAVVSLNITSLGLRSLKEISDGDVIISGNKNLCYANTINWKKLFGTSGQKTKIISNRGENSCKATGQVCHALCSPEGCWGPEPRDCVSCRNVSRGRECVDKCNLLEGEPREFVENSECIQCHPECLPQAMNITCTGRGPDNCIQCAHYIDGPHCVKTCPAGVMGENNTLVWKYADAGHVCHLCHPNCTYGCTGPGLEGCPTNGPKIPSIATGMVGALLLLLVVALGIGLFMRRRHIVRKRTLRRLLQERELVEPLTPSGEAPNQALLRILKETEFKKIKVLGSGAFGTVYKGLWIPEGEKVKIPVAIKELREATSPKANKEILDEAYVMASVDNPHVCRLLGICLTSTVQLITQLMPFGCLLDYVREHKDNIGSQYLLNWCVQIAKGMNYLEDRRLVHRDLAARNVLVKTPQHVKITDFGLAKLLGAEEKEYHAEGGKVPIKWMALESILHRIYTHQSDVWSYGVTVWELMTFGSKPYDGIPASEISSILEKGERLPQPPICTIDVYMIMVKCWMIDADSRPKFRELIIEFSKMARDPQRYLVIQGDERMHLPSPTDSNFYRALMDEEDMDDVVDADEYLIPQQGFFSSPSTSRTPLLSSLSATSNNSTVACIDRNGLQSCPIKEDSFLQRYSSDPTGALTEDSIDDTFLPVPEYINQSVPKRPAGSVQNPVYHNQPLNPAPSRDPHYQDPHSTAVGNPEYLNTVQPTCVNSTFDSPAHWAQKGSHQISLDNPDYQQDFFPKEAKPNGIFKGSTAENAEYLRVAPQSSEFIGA
Procedure, shortened: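 Read-out is the 665/620 nm HTRF ratio, from a Tb-cryptate anti-phosphotyrosine antibody and streptavidin-XL665 bound to phosphorylated biotin-peptide substrate. The enzyme, A431-derived EGFR (~3 U/ml), was given 15 min compound pre-binding at 22° C in Hepes pH 7.0 with Mg2+/Mn2+ before reaction.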

| Structure (SMILES) | IC50 [1] [nM] | IC50 ([2]; values given in μM) [µM] | IC50 ([2]; unit inferred) [µM] |
| --- | --- | --- | --- |
| COc1cc2nc(C)nc(NC(C)c3ccc(-c4ccccc4CN4CC(N(C)C)C4)s3)c2cc1OC (stereo not drawn) [Example 319, N-{1-[5-(2-{[3-(dimethylamino)azetidin-1-yl]methyl}phenyl)thiophen-2-yl]ethyl}-6,7-dimethoxy-2-methylquinazolin-4-amine] | 164 | > 20 | – |
| COc1cc2nc(C)nc(NC(C)c3ccc(-c4ccccc4CN4CC(F)(F)C4)s3)c2cc1OC (stereo not drawn) [Example 320, N-[1-(5-{2-[(3,3-difluoroazetidin-1-yl)methyl]phenyl}thiophen-2-yl)ethyl]-6,7-dimethoxy-2-methylquinazolin-4-amine] | 2260 | > 20 | – |
| COc1cc2nc(C)nc(NC(C)c3ccc(-c4ccccc4CN(C)CC(F)(F)F)s3)c2cc1OC (stereo not drawn) [Example 321, 6,7-di methoxy-2-methyl-N-{1-[5-(2-{[methyl(2,2,2-trifluoroethyl)amino]methyl}phenyl)thiophen-2-yl]ethyl}quinazolin-4-amine] | 14800 | > 20 | – |
| COc1cc2nc(C)nc(NC(C)c3ccc(-c4ccccc4CN4CC(F)C4)s3)c2cc1OC (stereo not drawn) [Example 322, N-[1-(5-{2-[(3-fluoroazetidin-1-yl)methyl]phenyl}thiophen-2-yl)ethyl]-6,7-dimethoxy-2-methylquinazolin-4-amine] | 408 | > 20 | – |
| COc1cc2nc(C)nc(NC(C)c3ccc(-c4ccc(Cl)cc4CN(C)C)s3)c2cc1OC (stereo not drawn) [Example 323, N-[1-(5-{4-chloro-2-[(dimethylamino)methyl]phenyl}thiophen-2-yl)ethyl]-6,7-dimethoxy-2-methylquinazolin-4-amine] | 39.5 | > 20 | – |
| COc1cc2nc(C)nc(NC(C)c3ccc(-c4ccccc4C(C)=O)s3)c2cc1OC (stereo not drawn) [Example 324, 1-[2-(5-{1-[(6,7-dimethoxy-2-methylquinazolin-4-yl)amino]ethyl}thiophen-2-yl)phenyl]ethanone] | 1290 | > 20 | – |
| COc1cc2nc(C)nc(NC(C)c3ccc(-c4ccccc4OCCN4CCCC4)s3)c2cc1OC (stereo not drawn) [Example 325, 6,7-di methoxy-2-methyl-N-[1-(5-{2-[2-(pyrrolidin-1-yl)ethoxy]phenyl}thiophen-2-yl)ethyl]quinazolin-4-amine] | 228 | > 20 | – |
| COc1cc2nc(C)nc(NC(C)c3cccc4sc(C)cc34)c2cc1OC (stereo not drawn) [Example 330, 6,7-dimethoxy-2-methyl-N-[1-(2-methyl-1-benzothiophen-4-yl)ethyl]quinazolin-4-amine] | 227 | > 20 | – |
| COc1cc2nc(C)nc(NC(C)c3ccnc4sccc34)c2cc1OC (stereo not drawn) [Example 331, 6,7-dimethoxy-2-methyl-N-[1-(thieno[2,3-b]pyridin-4-yl)ethyl]quinazolin-4-amine] | 919 | > 20 | – |
| COc1cc2nc(C)nc(NC(C)c3cncc4sccc34)c2cc1OC (stereo not drawn) [Example 332, 6,7-dimethoxy-2-methyl-N-[1-(thieno[2,3-c]pyridin-4-yl)ethyl]quinazolin-4-amine] | 2250 | > 20 | – |
| COc1cc2nc(C)nc(NC(C)c3nccc4sccc34)c2cc1OC (stereo not drawn) [Example 333, 6,7-dimethoxy-2-methyl-N-[1-(thieno[3,2-c]pyridin-4-yl)ethyl]quinazolin-4-amine] | 13000 | – | 16.4 |
| COc1cc2nc(C)nc(N[C@H](C)c3cccc(-c4c(C)n[nH]c4C)c3)c2cc1OC [Example 334, N-{(1R)-1-[3-(3,5-dimethyl-1H-pyrazol-4-yl)phenyl]ethyl}-6,7-dimethoxy-2-methylquinazolin-4-amine] | 362 | > 20 | – |
| COc1cc2nc(C)nc(N[C@H](C)c3cccc(-c4cn[nH]c4C)c3)c2cc1OC [Example 335, 6,7-dimethoxy-2-methyl-N-{(1R)-1-[3-(5-methyl-1H-pyrazol-4-yl)phenyl]ethyl}quinazolin-4-amine] | 145 | > 20 | – |
| COc1cc2nc(C)nc(N[C@H](C)c3cccc(-c4c(C)noc4C)c3)c2cc1OC [Example 336, N-{(1R)-1-[3-(3,5-dimethyl-1,2-oxazol-4-yl)phenyl]ethyl}-6,7-dimethoxy-2-methyl-quinazolin-4-amine] | 687 | > 20 | – |
| COc1cc2nc(C)nc(N[C@H](C)c3cccc(-c4ccn[nH]4)c3)c2cc1OC [Example 337, 6,7-dimethoxy-2-methyl-N-{(1R)-1-[3-(1H-pyrazol-5-yl)phenyl]ethyl}quinazolin-4-amine] | 344 | > 20 | – |
| COc1cc2nc(C)nc(N[C@H](C)c3cccc(-c4cnn(C)c4)c3)c2cc1OC [Example 338, 6,7-dimethoxy-2-methyl-N-{(1R)-1-[3-(1-methyl-1H-pyrazol-4-yl)phenyl]ethyl}quinazolin-4-amine] | 325 | > 20 | – |
| COc1cc2nc(C)nc(N[C@H](C)c3cccc(-c4ccnn4C)c3)c2cc1OC [Example 339, 6,7-dimethoxy-2-methyl-N-{(1R)-1-[3-(1-methyl-1H-pyrazol-5-yl)phenyl]ethyl}quinazolin-4-amine] | 815 | > 20 | – |
| COc1cc2nc(C)nc(N[C@H](C)c3cccc(-n4ccnc4)c3)c2cc1OC [Example 340, N-{(1R)-1-[3-(1H-imidazol-1-yl)phenyl]ethyl}-6,7-dimethoxy-2-methylquinazolin-4-amine] | 344 | > 20 | – |
